ChEMBL document CHEMBL2029213, “Multiple determinants for selective inhibition of apicomplexan calcium-dependent protein kinase CDPK1” (J Med Chem, 2012)
pKi: −log10 of the molar value.

Key:
[1] = target: Tyrosine-protein kinase ABL1 (Homo sapiens, UniProt P00519)
Description: Inhibition of human ABL by radiometric assay

[2] = target: Proto-oncogene tyrosine-protein kinase Src (Homo sapiens, UniProt P12931)
Proto-oncogene tyrosine-protein kinase Src, sequence (P12931 2-536 limits assumed): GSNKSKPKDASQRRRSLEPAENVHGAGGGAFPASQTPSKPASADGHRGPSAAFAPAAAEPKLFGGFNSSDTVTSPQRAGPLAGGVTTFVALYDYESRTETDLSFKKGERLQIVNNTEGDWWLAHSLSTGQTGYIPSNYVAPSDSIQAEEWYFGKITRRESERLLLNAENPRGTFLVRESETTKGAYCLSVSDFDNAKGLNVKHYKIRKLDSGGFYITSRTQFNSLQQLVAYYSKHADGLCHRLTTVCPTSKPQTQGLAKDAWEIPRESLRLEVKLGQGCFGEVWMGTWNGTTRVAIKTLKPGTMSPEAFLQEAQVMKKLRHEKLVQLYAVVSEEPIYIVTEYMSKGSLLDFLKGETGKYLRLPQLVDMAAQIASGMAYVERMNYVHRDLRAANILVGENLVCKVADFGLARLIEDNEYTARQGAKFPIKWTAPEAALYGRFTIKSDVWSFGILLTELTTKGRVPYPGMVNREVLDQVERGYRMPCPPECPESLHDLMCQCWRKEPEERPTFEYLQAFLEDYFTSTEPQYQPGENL
Description: Inhibition of human SRC by radiometric assay

Tyrosine-protein kinase ABL1, sequence (P00519 whole entry): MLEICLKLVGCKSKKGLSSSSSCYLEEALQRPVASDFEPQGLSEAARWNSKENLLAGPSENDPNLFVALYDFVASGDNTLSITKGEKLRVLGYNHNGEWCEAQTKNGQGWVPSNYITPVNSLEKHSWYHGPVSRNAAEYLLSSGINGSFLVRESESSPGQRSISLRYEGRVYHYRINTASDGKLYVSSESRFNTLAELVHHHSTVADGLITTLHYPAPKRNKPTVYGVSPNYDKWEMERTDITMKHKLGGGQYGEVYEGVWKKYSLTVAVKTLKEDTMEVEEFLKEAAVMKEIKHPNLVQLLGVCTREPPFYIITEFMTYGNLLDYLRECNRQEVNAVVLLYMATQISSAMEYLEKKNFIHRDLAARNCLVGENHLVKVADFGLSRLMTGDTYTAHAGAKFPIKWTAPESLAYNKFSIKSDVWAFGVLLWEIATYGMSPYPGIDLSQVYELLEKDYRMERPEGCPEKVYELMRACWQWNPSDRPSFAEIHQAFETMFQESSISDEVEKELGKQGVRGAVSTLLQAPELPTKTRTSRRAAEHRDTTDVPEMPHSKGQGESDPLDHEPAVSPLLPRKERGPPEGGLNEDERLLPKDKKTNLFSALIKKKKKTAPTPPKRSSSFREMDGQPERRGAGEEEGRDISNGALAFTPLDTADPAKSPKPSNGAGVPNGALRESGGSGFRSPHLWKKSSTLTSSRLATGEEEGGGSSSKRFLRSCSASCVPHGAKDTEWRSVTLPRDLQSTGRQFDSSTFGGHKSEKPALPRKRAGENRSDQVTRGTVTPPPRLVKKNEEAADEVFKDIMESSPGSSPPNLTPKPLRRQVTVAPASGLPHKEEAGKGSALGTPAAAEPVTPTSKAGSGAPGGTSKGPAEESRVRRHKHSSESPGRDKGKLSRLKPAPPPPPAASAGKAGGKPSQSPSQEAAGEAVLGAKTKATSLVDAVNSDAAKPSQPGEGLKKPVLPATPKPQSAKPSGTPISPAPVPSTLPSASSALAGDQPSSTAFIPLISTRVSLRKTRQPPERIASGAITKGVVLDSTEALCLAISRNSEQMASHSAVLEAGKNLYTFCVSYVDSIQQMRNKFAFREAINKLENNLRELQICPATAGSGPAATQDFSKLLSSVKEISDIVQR

Row | pKi [1] | pKi [2] | SMILES
1 | – | 5.91 | CC(C)n1nc(-c2cc3c(Cl)cccc3[nH]2)c2c(N)ncnc21
2 | – | 6.11 | COc1ccc2cc(-c3nn(C(C)C)c4ncnc(N)c34)ccc2c1
3 | < 4.82 | < 4.70 | COc1ccc2cc(-c3nn(CC4CCNCC4)c4ncnc(N)c34)ccc2c1
4 | < 4.82 | < 4.70 | Nc1ncnc2c1c(-c1cnc3ccccc3c1)nn2CC1CCNCC1
5 | 5.00 | < 5.00 | Nc1nc2ccc(C(=O)c3ccccc3)cc2[nH]1

Continued, compound first:

Row | SMILES | pKi [1] | pKi [2]
6 | COC(=O)Nc1nc2ccc(C(=O)c3ccccc3)cc2[nH]1 [MEBENDAZOLE] | 5.34 | –
7 | Nc1nc2ccc(C(=O)c3ccccc3)cc2n1CC1CCNCC1 | < 5.00 | < 5.00
8 | CCOc1ccc2cc(-c3nn(CC4CCNCC4)c4ncnc(N)c34)ccc2c1 | < 4.82 | < 4.70
9 | Nc1ncnc2c1cnn2CC1CCNCC1 | < 5.00 | < 5.00
